In one experiment the target is T1, mu opiate receptor (Rattus norvegicus, UniProt P33535).
T1 construct: from tissue; host or cells: rat brain membranes/homogenate
The experiment can be described thus: Inhibition of [3H]DAMGO binding to the mu opiate receptor in rat brain homogenates. The arrangement: Mean: unit not given beside the values. The following applies: 0.08 mg of compound per milliliter, 7 nM 3H-labeled DAMGO, rat brain membranes; for % Bound: [3H]DAMGO bound; for Mean: mean bound radioactivity of [3H]DAMGO; for Minus NSB*: mean minus non-specific binding; for % Inhibition: percent inhibition of DAMGO binding. The protocol: The previously prepared [3,5,7]-1H-imidazo[1,5-a]-imidazol-2(3H)-one library of individual compounds was screened for the ability to inhibit the binding of [^3H] [D-Ala^2,MePhe^4,Gly^5-ol]enkephalin (DAMGO) that is known to bind specifically to the mu opiate receptor present in rat brain homogenates following literature procedures. [Dooley et al., Science, 266:2019(1994); U.S. Pat. No. 5,763,193.]
Preparation of rat brain membranes and the receptor binding assay were carried out as described in Dooley et al., Life Sci., 52:1509(1993). Each tube in the screening assay contained 0.08 mg of compound mixture per milliliter, 0.5 mL of membrane suspension (0.1 mg of protein), 7 nM ^3H-labeled DAMGO [specific activity 36 Ci/mmol, obtained from the National Institute on Drug Abuse (NIDA) repository through Chiron Mimotopes PeptideSystems (San Diego, Calif.) and […] of peptide mixture in 50 mM Tris-HCl buffer (pH 7.4). The final volume was 0.65 mL. The results of these screenings are shown in the table, below, wherein the “R” groups are as discussed for Example 1. The results are reported as percent inhibition of DAMGO binding.

In another experiment the target is T2, kappa opiate receptor (Cavia porcellus, UniProt P41144).
T2 construct: guinea pig cortices and cerebella were homogenized in 40 mL of Buffer A; from tissue; host or cells: guinea pig cortices and cerebella, crude membrane suspension
T2 sequence (P41144 whole entry): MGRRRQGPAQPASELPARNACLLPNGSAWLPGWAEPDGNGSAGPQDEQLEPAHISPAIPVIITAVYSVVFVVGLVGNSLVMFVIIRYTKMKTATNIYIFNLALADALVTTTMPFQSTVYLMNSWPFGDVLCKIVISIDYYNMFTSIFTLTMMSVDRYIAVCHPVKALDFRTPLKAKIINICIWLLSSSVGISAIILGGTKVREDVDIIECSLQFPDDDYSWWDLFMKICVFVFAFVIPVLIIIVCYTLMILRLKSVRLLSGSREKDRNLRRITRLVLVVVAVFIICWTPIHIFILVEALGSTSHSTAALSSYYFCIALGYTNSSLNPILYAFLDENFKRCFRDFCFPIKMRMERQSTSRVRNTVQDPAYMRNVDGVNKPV
The experiment in a line: Inhibition of tritiated U69,593 binding to the kappa opiate receptor in guinea pig brain homogenates. Also on record: Mean: unit not given beside the values. As to conditions: 3 nm tritiated U69,593, guinea pig brain membranes; for % Bound: [3H]U69,593 bound; for % Inhibition: inhibition of [3H]U69,593 binding; for Mean: mean bound radioactivity of [3H]U69,593, 2.5 hours 25° C.; for Minus NSB: mean minus non-specific binding. The protocol:
The above-prepared library of individual compounds was screened for the ability to inhibit the binding of tritiated Compound U69,593 that is known to bind specifically to the kappa opiate receptor present in guinea pig brain homogenates following literature procedures. [Dooley et al., J. Biol. Chem., 273(30) 18848-18856 (1998)]
Briefly, guinea pig cortices and cerebella were homogenized in 40 mL of Buffer A [50 mM Tris-HCl, pH 7.4] at 4° C. Homogenates were centrifuged [Beckman® J2-HC, 35, 300×g] for 10 minutes. The pellets were resuspended in fresh buffer and incubated at 37° C. for 40 minutes. Following incubation, the suspensions were centrifuged as before, the resulting pellets resuspended in 100 volumes of Tris buffer, and the suspensions combined. Membrane suspensions were prepared and used on the same day. Protein content of the crude homogenates was determined by the method of Bradford, Anal. Biochem., 72:248-252 (1976).
Each assay tube contained 0.5 mL of membrane suspension, 3 nm of tritiated Compound U69,593 [(5a,7a,8b)-(−)-N-methyl-N-(7-(1-pyrrolidinyl)-1-oxaspiro(4,5)dec-8-yl)-benzeneacetamide; Lahti et al., European J. Pharmacol., 109:281-284(199-85)] in a total volume of 0.65 mL. Assay tubes were incubated for 2.5 hours a 25° C. The assay was then filtered through GF-B filters on a Tomec™ harvester (Orange, Conn.). The filters were subsequently washed with 6 mL of 50 mM Tris-HC1, pH 7.4 at 4° C. Bound radioactivity was counted on a Wallace™ Beta-plate Liquid Scintillation Counter (Piscataway, N.J.). Unlabeled U50, 488 [(trans-(dl)-3,4-dichloro-N-methyl-N-[2-(1-pyrrolidinyl)cyclohexyl]-benzeneacetamide) methane sulfonate hydrate; Lahti et al., Life Sci., 31:2257-xx(1982) and Von Voightlander et al., J. Pharmacol. Exp. Ther., 224:7 (1983)] was used as a competitive inhibitor to generate a standard curve and determine nonspecific binding. The results of these assays are shown in the table, below, wherein the “R” groups are as discussed for Example 1.

The record followed here is patent US6545032B1, “Synthesis of [3,5,7]-H-imidazo[1,5-a] imidazol-2(3H)-one compounds” (Torrey Pines Institute for Molecular Studies, priority 1999, dated 2003).

Broadly, the % Inhibition is the change of the read-out against control, counted positive when it falls.

T1 sequence (P33535 whole entry): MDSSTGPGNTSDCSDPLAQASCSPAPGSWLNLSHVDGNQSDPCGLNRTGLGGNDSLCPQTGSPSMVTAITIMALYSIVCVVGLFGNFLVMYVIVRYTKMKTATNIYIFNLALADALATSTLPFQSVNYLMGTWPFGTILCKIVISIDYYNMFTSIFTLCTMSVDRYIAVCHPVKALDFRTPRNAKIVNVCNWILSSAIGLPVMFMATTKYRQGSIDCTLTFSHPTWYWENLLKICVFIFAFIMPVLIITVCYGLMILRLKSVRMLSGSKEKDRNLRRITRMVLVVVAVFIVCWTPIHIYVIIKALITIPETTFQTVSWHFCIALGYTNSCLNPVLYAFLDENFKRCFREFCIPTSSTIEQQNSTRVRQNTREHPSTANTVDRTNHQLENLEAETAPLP

As to `CCC(c1ccccc1)c1nc(C(C)C)c2n1C(C(C)C)C(=O)N2` (mixture of isomers) [Pool 68], at mu opiate receptor, the “% Bound” value stood at 66%, the Mean is recorded as 935.45, the “Minus NSB*” value stood at 627.45 and the “% Inhibition” value stood at 34%. Also, on kappa opiate receptor, the “% Bound” value worked out at 106.786%, the “% Inhibition” value is listed as −6.786%, the Mean came out at 2013.3 and the “Minus NSB” value was determined as 1106.30.
Regarding `CC(C)c1nc(CC(C)c2ccccc2)n2c1NC(=O)C2C(C)C` (mixture of isomers) [Pool 69], on mu opiate receptor, the “% Bound” value was 62%, the Mean is given as 900.1, the “Minus NSB*” value is recorded as 592.10 and the “% Inhibition” value stood at 38%. Besides, on kappa opiate receptor, the “% Bound” value is listed as 67.157%, the “% Inhibition” value was determined as 32.843%, the Mean is listed as 1602.75 and the “Minus NSB” value was 695.75.
In the case of `CCC(C)c1nc(C(C)C)c2n1C(C(C)C)C(=O)N2` (mixture of isomers) [Pool 124], on mu opiate receptor, the “% Bound” value amounted to 62%, the Mean amounted to 901.85, the “Minus NSB*” value is 593.85 and the “% Inhibition” value came to 38%. In addition, on kappa opiate receptor, the “% Bound” value worked out at 62.630%, the “% Inhibition” value is 37.370%, the Mean was found to be 1555.85 and the “Minus NSB” value was 648.85.
For `CCCCC(CC)c1nc(C(C)C)c2n1C(C(C)C)C(=O)N2` (mixture of isomers) [Pool 128], at mu opiate receptor, the “% Bound” value is listed as 60%, the Mean stood at 881.35, the “Minus NSB*” value is 573.35 and the “% Inhibition” value was 40%. Besides, on kappa opiate receptor, the “% Bound” value is reported as 57.563%, the “% Inhibition” value came out at 42.437%, the Mean was 1503.35 and the “Minus NSB” value is 596.35.
Turning to `CSCCc1nc(C)n2c1NC(=O)C2C(C)C` (racemic) [Pool 59], on mu opiate receptor, the “% Bound” value was 59%, the Mean was found to be 874.75, the “Minus NSB*” value came to 566.75 and the “% Inhibition” value is reported as 41%. In addition, on kappa opiate receptor, the “% Bound” value was 78.953%, the “% Inhibition” value was 21.047%, the Mean was 1724.95 and the “Minus NSB” value came to 817.95.
As for `CCCCc1nc(C)n2c1NC(=O)C2C(C)C` (racemic) [Pool 60], at mu opiate receptor, the “% Bound” value turned out to be 62%, the Mean was found to be 902.8, the “Minus NSB*” value is listed as 594.80 and the “% Inhibition” value came out at 38%. Besides, at kappa opiate receptor, the “% Bound” value is 81.892%, the “% Inhibition” value is given as 18.108%, the Mean was determined as 1755.4 and the “Minus NSB” value turned out to be 848.40.
Take `CCCc1nc(C)n2c1NC(=O)C2C(C)C` (racemic) [Pool 61]: at mu opiate receptor, the “% Bound” value came out at 39%, the Mean amounted to 677.65, the “Minus NSB*” value turned out to be 369.65 and the “% Inhibition” value is 61%. In addition, on kappa opiate receptor, the “% Bound” value turned out to be 50.845%, the “% Inhibition” value is on record as 49.155%, the Mean is reported as 1433.75 and the “Minus NSB” value is 526.75.
For `Cc1nc(CC2CCCCC2)c2n1C(C(C)C)C(=O)N2` (racemic) [Pool 62], at mu opiate receptor, the “% Bound” value is on record as 52%, the Mean came out at 805, the “Minus NSB*” value is reported as 497.00 and the “% Inhibition” value came out at 48%. On kappa opiate receptor, the “% Bound” value worked out at 83.909%, the “% Inhibition” value worked out at 16.091%, the Mean is recorded as 1776.3 and the “Minus NSB” value is reported as 869.30.
With `Cc1nc(CO)c2n1C(C(C)C)C(=O)N2` (centres unmarked) [Pool 39], on kappa opiate receptor, the “% Bound” value turned out to be 78.827%, the “% Inhibition” value is recorded as 21.173%, the Mean worked out at 1723.65 and the “Minus NSB” value amounted to 816.65.
